Data reported in PMC12567515, “Assessment of Carrier-Free Metallacarboranes for Targeted Radiation Therapies PBFT and BNCT: Comparative Cellular Effects and Dosimetry Studies with [o-FESAN]^− in Breast Cancer Cells” (Pharmaceuticals, 2025).

Legend:
MDA-MB-231 cells [1] = assay: Morphological analysis by TEM; assay type: cell-based, human; conditions: MDA-MB-231, 50 µM, 24 h
Protocol: Transmission electron microscopy (TEM) was used to assess the structural integrity of MDA-MB-231 cells and to examine the effects at the organelle level before and 2 h after irradiation with proton beams (2.0 MeV).
MDA-MB-231 cells were seeded into 6-well plates at approx. 70% confluence. After 24 h, cells were treated with Na[o-FESAN] at 50 µM for 24 h. After incubation, cells were irradiated with a proton beam as described above and processed for TEM analysis 2 h later, following a previously described method. Briefly, the preparation of the cells included several steps of fixation: primary fixation with 3% glutaraldehyde in 0.1 M sodium cacodylate buffer, pH 7.3; secondary fixation with 1% osmium tetroxide in 0.1 M sodium cacodylate buffer, pH 7.3 for 3 h; tertiary fixation and contrasting with 0.5% uranyl acetate in the same buffer for 1 h, dehydration with ethanol and resin (Epon-Araldite) (Merck, Darmstadt, Germany) infiltration and embedding. The stained cells were then photographed and studied using a JEOL 100-SX electron microscope JEOL, Tokyo, Japan.

[2] = system: MDA-MB-231 xenograft-bearing nude mice; assay: Biodistribution (boron by ICP-OES) in MDA-MB-231 xenograft model; assay type: in vivo, mouse; conditions: 7.5 mg B/kg i.v., 1 and 4 h post-injection
Protocol: The biodistribution of Na[o-FESAN] (7.5 mg B/kg, i.v.) was evaluated in an MDA-MB-231 breast cancer xenograft model, and the results at 1 and 4 h are shown in Figure 2.
All animal experiments were approved by the Animal Care and Use Committee of the Institute of Science Tokyo and performed in accordance with the Guidelines for the Care and Use of Laboratory Animals as stated by the Institute of Science Tokyo (Approval number “D2021007”). All animals were maintained under controlled conditions of temperature and humidity with ad libitum water and feeding. MDA-MB-231 tumor-bearing mice (Balb/cSlc-nu/nu, female, 5–6 weeks old, 14–20 g, Sankyo Labo Service Co., Ltd., Hamamatsu, Japan) were prepared by injecting subcutaneously (s.c.) a suspension of MDA-MB-231 cells (8.0 × 10^5 cells/mouse) directly into the right thigh. The mice were kept on a regular chow diet and water, and maintained under a 12 h light/dark cycle in an ambient atmosphere. When the tumor diameter became 5 to 7 mm, the mice were injected via the tail vein with 200 µL PBS solution of Na[o-FESAN] (7.5 mg B/kg). […] After filtering through a hydrophobic filter, boron concentration was measured by inductively coupled plasma optical emission spectroscopy (ICP-OES) using an iCAP 7400 Duo elemental analyzer (Thermo Fisher Scientific Inc., Waltham, MA, USA).

SKBR-3 cells [3] = assay: Cytotoxicity, MTT assay before irradiation; assay type: cell-based, human; conditions: SKBR-3, 24 h treatment
Protocol: (§1) The cytotoxicity of Na[o-FESAN] in breast cancer cells was evaluated to help the selection of the work concentrations for the uptake and irradiation studies. Moreover, the general requirements of therapeutic drugs include, among others, low cytotoxicity and high tumor uptake.
(§2) Before the irradiation studies, the concentrations of Na[o-FESAN] were selected. SKBR-3 and MDA-MB-231 cells were counted with a Neubauer chamber using Trypan Blue exclusion and a Zeiss Primovert microscope, seeded in 96-well plates (1–2 × 10^4 cells/200 µL medium) and incubated at 37 °C for 24 h to adhere. Then, the medium was discarded, and cells were incubated with Na[o-FESAN] at serial concentrations in complete medium in the range 1–300 µM for 24 h. After incubation, the cellular viability was determined using the MTT assay as previously described.

MDA-MB-231 cells [4] = assay: Cytotoxicity, MTT assay before irradiation; assay type: cell-based, human; conditions: MDA-MB-231, 24 h treatment
Protocol: as §1, §2

SKBR-3 cells [5] = assay: Viability and proliferation after thermal neutron irradiation (BNCT); assay type: cell-based, human; conditions: SKBR-3, 50 and 100 µM, 24 h, thermal neutrons 15 min at 30 kW, growth followed 10 days
Protocol: (§3) For neutron irradiation, SKBR-3 and MDA-MB-231 cells were incubated with Na[o-FESAN] at 50 and 100 µM and were irradiated with thermal neutrons at the Triga Mark II nuclear reactor at the University of Pavia. […] Both surviving SKBR-3 and MDA-MB-231 cells that were treated with Na[o-FESAN] […] This clearly indicates the important contribution of neutron capture to induce a long-term cytotoxic effect. Another important point is that the toxic effect was observed using Na[o-FESAN] containing natural B. In fact, the amount of internalized B measured by ICP-MS after 24 h incubation with 50 or 100 µM Na[o-FESAN] contained only 19.9% of the active ^10B isotope. Assuming that in the case of epithelial tumors (with a diameter ranging from 15–20 µm), a density of ca. 10^8 cells for cm^3 is a reasonable number, [76] from the data obtained by ICP-MS analysis, it was possible to calculate the amount of ^10B internalized in cells expressed in ppm (µg/g).
(§4) SKBR-3 and MDA-MB-231 cells were seeded in 25 cm^2 flasks (12 flasks for each cell line) at a density of 6.5 × 10^5 cells. […]
(§5) Twenty-four hours after irradiation, cells were detached with 0.05% trypsin and 0.02% EDTA, and cell viability was evaluated using the trypan blue exclusion test and reported as the percentage of cells observed in treated and/or irradiated samples with respect to that observed in control cells. […] The cell growth was followed for 10 days, and at pre-determined times, the cells were washed with PBS, detached with 0.05% trypsin and 0.02% EDTA, and transferred into falcon tubes. Then, cells were sonicated for 30 s at 30% power in ice, and the total cell protein concentration (that is, proportional to the number of cells) from cell lysates was determined by the Bradford method, using bovine serum albumin as a standard. The cell growth rate was calculated as follows: [(number of cells(ti) − number of cells(t0))/number of cells(t0)] × 100 where (ti) is the number of cells measured at the various time intervals and (t0) is the number of cells at the starting point (t = 0) of the proliferation assay.

MDA-MB-231 cells [6] = assay: as above; assay type: cell-based, human
Protocol: as §3, §4, §5

SKBR-3 cells [7] = assay: Intracellular ROS (H2DCF-DA) after proton irradiation; assay type: cell-based, human; conditions: SKBR-3, 50 and 100 µM, 24 h, protons 0.235 Gy, up to 48 h post-irradiation
Protocol: (§6) In non-irradiated cells (with/without treatment), no appreciable ROS formation was observed.
(§7) Intracellular ROS levels were measured using the 2′,7′-dichlorodihydrofluorescein diacetate (H2DCF-DA) fluorescent probe as previously described. […] Then, the probe (10 µM) in colorless DMEM medium (FluoroBrite™ DMEM, Gibco®, Waltham, MA, USA) was incubated with the cells for an additional 30 min. at 37 °C. Later, the medium was removed and replaced by a fresh one. The fluorescence intensity was continuously measured up to 48 h with a Varioskan LUX scanning multimode reader (Thermo Fisher Scientific, Waltham, MA, USA). Results of fluorescence (mean ± SD) were expressed as the fold change in fluorescence levels compared with controls (non-irradiated treated cells).

MDA-MB-231 cells [8] = assay: as above; assay type: cell-based, human; conditions: MDA-MB-231, 50 and 100 µM, 24 h, protons 0.235 Gy, up to 48 h post-irradiation
Protocol: as §6, §7

[9] = set-up: method as in PMID 24737689, PMID 35470838; conditions: cited from earlier work
[10] = set-up: method as in PMID 36373493; conditions: cited from earlier work

[3,3′-Fe(1,2-C2B9H11)2]^− [Na[o-FESAN]]
Cell morphology (TEM), no irradiation (MDA-MB-231 cells [1]): moderate amount of vacuolization | Cell morphology (TEM), 2 h after proton irradiation (MDA-MB-231 cells [1]; proton beam 2.0 MeV): necrosis | Clearance in blood and main organs (heart, liver, lung, kidney, spleen, muscle) [2]: slow | Tumor uptake [2]: remained relatively high | IC50 (SKBR-3 cells [3]): 83.5 ± 18.6 µM | IC50 (MDA-MB-231 cells [4]): 103 ± 24.9 µM | Proliferation of surviving cells after neutron irradiation (SKBR-3 cells [5]): marked inhibition of proliferation | Proliferation of surviving cells after neutron irradiation (MDA-MB-231 cells [6]; MDA-MB-231, 50 and 100 µM, 24 h, thermal neutrons 15 min at 30 kW, growth followed 10 days): marked inhibition of proliferation | Number of viable cells after treatment and neutron irradiation vs non-treated irradiated cells (MDA-MB-231 cells [6]; MDA-MB-231, 24 h post irradiation, trypan blue): significantly different | ROS levels after proton irradiation vs non-irradiated controls (SKBR-3 cells [7]): increased ROS levels in a dose-dependent manner | ROS levels after proton irradiation vs non-irradiated controls (MDA-MB-231 cells [8]): increased ROS levels in a dose-dependent manner | Solubility in water [9]: approx. 1 M | Stability in cellular medium [10]: did not suffer degradation
